From patent US6737383B1, “Herbicidal oxadiazolidines” (priority 1999, dated 2004)

Columns and labels:
blackgrass = test: Test B pre/postemergence blackgrass; type: in vivo, Alopecurus myosuroides
How it was run: (§1)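 Test chemicals in a non-phytotoxic solvent mixture with surfactant were sprayed preemergence onto planted seeds and postemergence onto plants 2 to 18 cm tall (1- to 4-leaf stage). After twelve to sixteen days in a greenhouse, injury was visually rated against untreated controls from 0 (no effect) to 10 (complete control).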

surinam grass = test: Test B pre/postemergence surinam grass; type: in vivo, Brachiaria decumbens
How it was run: as §1

cocklebur = test: Test B pre/postemergence cocklebur; type: in vivo, Xanthium strumarium
How it was run: as §1

corn = test: Test B pre/postemergence corn; type: in vivo, Zea mays
How it was run: as §1

crabgrass = test: Test B pre/postemergence crabgrass; type: in vivo, Digitaria sanguinalis
How it was run: as §1

giant foxtail = test: Test B pre/postemergence giant foxtail; type: in vivo, Setaria faberii
How it was run: as §1

pigweed = test: Test B pre/postemergence pigweed; type: in vivo, Amaranthus retroflexus
How it was run: as §1

rape = test: Test B pre/postemergence rape; type: in vivo, Brassica napus
How it was run: as §1

soybean = test: Test B pre/postemergence soybean; type: in vivo, Glycine max
How it was run: as §1

sugar beet = test: Test B pre/postemergence sugar beet; type: in vivo, Beta vulgaris
How it was run: as §1

wheat = test: Test B pre/postemergence wheat; type: in vivo, Triticum aestivum
How it was run: as §1

purple nutsedge = test: Test B pre/postemergence purple nutsedge; type: in vivo, Cyperus rotundus; settings: Postemergence
How it was run: as §1

rice = test: Test B flood test rice; type: in vivo, Oryza sativa
How it was run: (§2)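 Plants were grown to the 2-leaf stage before treatment with test chemical, then held in a greenhouse for twelve to sixteen days. Injury was visually rated against untreated controls on a 0–10 scale, where 0 is no effect and 10 is complete control.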

smallflower flatsedge = test: Test B flood test smallflower flatsedge; type: in vivo, Cyperus difformis
How it was run: as §2

duck salad = test: Test B flood test duck salad; type: in vivo, Heteranthera limosa
How it was run: as §2

bamyardgrass = test: Test B flood test barnyardgrass; type: in vivo, Echinochloa crus-galli
How it was run: as §2

[1] = Preemergence, Rate 62 g/ha, scale of 0 to 10 where 0 is no effect and 10 is complete control
[2] = Preemergence, Rate 250 g/ha, scale of 0 to 10 where 0 is no effect and 10 is complete control
[3] = Preemergence, Rate 500 g/ha, scale of 0 to 10 where 0 is no effect and 10 is complete control
[4] = Rate 62 g/ha, Postemergence, scale of 0 to 10 where 0 is no effect and 10 is complete control
[5] = Rate 125 g/ha, Postemergence, scale 0 to 10
[6] = Rate 125 g/ha, Preemergence, scale of 0 to 10 where 0 is no effect and 10 is complete control
[7] = Rate 500 g/ha, Postemergence, scale 0 to 10, 0 no effect, 10 complete control
[8] = Rate 62 g/ha, headed Pre-emergence (flood test species), scale 0 to 10 (0 no effect, 10 complete control)
[9] = Rate 125 g/ha, Pre-emergence, flood test species, scale 0 to 10 where 0 is no effect and 10 is complete control
[10] = Rate 250 g/ha, Pre-emergence, flood-test species, scale 0 to 10, 0 is no effect, 10 is complete control
[11] = Rate 500 g/ha, Pre-emergence, flood test species, scale 0 to 10 (0 no effect, 10 complete control)

Question: With `Cc1ccccc1N(C(=O)n1oc(=O)n(-c2ccccc2C)c1=O)C(C)C` [Compound 236] as the compound, how does the “Blackgrass plant response rating” value (blackgrass; [1]) read?
Answer: 0

Question: And the “Blackgrass plant response rating” value (blackgrass; [2])?
Answer: 5

Question: What about the “Plant response rating, Blackgrass” value (blackgrass; [3]) of the same compound?
Answer: 5

Question: What about the “Blackgrass plant response rating” value (blackgrass; [4]) of the same compound?
Answer: 0

Question: What about the “Blackgrass plant response rating” value (blackgrass; [5]) of the same compound?
Answer: 0

Question: And the “Blackgrass plant response rating” value (blackgrass; [6])?
Answer: 2

Question: What about the “Plant response rating (0 to 10; 0 is no effect, 10 is complete control), Blackgrass” value (blackgrass; Rate 250 g/ha, Postemergence) of the same compound?
Answer: 0

Question: What about the “Blackgrass plant response rating” value (blackgrass; [7]) of the same compound?
Answer: 0

Question: And the “B. signalgrass plant response rating” value (surinam grass; [1])?
Answer: 0

Question: And the “B. signalgrass plant response rating” value (surinam grass; Preemergence, Rate 250 g/ha, scale 0 to 10, 0 is no effect, 10 is complete control)?
Answer: 0

Question: What about the “Plant response rating, B. signalgrass” value (surinam grass; [3]) of the same compound?
Answer: 3

Question: What about the “B. signalgrass plant response rating” value (surinam grass; [4]) of the same compound?
Answer: 0

Question: What about the “B. signalgrass plant response rating” value (surinam grass; Rate 125 g/ha, Postemergence, scale 0 (no effect) to 10 (complete control)) of the same compound?
Answer: 0

Question: What about the “B. signalgrass plant response rating” value (surinam grass; [6]) of the same compound?
Answer: 0

Question: What about the “Plant response rating (0 to 10; 0 is no effect, 10 is complete control), B. signalgrass” value (surinam grass; Rate 250 g/ha, Postemergence) of the same compound?
Answer: 0

Question: And the “B. signalgrass plant response rating” value (surinam grass; [7])?
Answer: 0

Question: And the “Cocklebur plant response rating” value (cocklebur; [1])?
Answer: 0

Question: And the “Cocklebur plant response rating” value (cocklebur; [2])?
Answer: 0

Question: What about the “Plant response rating, Cocklebur” value (cocklebur; [3]) of the same compound?
Answer: 0

Question: What about the “Cocklebur plant response rating” value (cocklebur; [4]) of the same compound?
Answer: 0

Question: And the “Cocklebur plant response rating” value (cocklebur; [5])?
Answer: 0

Question: And the “Cocklebur plant response rating” value (cocklebur; [6])?
Answer: 0

Question: What about the “Plant response rating (0 to 10; 0 is no effect, 10 is complete control), Cocklebur” value (cocklebur; Rate 250 g/ha, Postemergence) of the same compound?
Answer: 0

Question: And the “Cocklebur plant response rating” value (cocklebur; [7])?
Answer: 0

Question: What about the “Corn plant response rating” value (corn; [1]) of the same compound?
Answer: 0

Question: What about the “Corn plant response rating” value (corn; [2]) of the same compound?
Answer: 0

Question: What about the “Plant response rating, Corn” value (corn; [3]) of the same compound?
Answer: 0

Question: What about the “Corn plant response rating” value (corn; [4]) of the same compound?
Answer: 0

Question: And the “Corn plant response rating” value (corn; [5])?
Answer: 0

Question: What about the “Corn plant response rating” value (corn; [6]) of the same compound?
Answer: 0

Question: And the “Plant response rating (0 to 10; 0 is no effect, 10 is complete control), Corn” value (corn; Rate 250 g/ha, Postemergence)?
Answer: 0

Question: What about the “Corn plant response rating” value (corn; [7]) of the same compound?
Answer: 0

Question: And the “Crabgrass plant response rating” value (crabgrass; [1])?
Answer: 2

Question: What about the “Crabgrass plant response rating” value (crabgrass; [2]) of the same compound?
Answer: 5

Question: What about the “Plant response rating, Crabgrass” value (crabgrass; [3]) of the same compound?
Answer: 5

Question: What about the “Crabgrass plant response rating” value (crabgrass; [4]) of the same compound?
Answer: 0

Question: And the “Crabgrass plant response rating” value (crabgrass; [5])?
Answer: 0

Question: And the “Crabgrass plant response rating” value (crabgrass; [6])?
Answer: 3

Question: And the “Plant response rating (0 to 10; 0 is no effect, 10 is complete control), Crabgrass” value (crabgrass; Rate 250 g/ha, Postemergence)?
Answer: 0

Question: What about the “Crabgrass plant response rating” value (crabgrass; [7]) of the same compound?
Answer: 0

Question: What about the “Giant foxtail plant response rating” value (giant foxtail; [1]) of the same compound?
Answer: 7

Question: What about the “Giant foxtail plant response rating” value (giant foxtail; [2]) of the same compound?
Answer: 9

Question: What about the “Plant response rating, Giant foxtail” value (giant foxtail; [3]) of the same compound?
Answer: 10

Question: And the “Giant foxtail plant response rating” value (giant foxtail; [4])?
Answer: 0

Question: What about the “Giant foxtail plant response rating” value (giant foxtail; [5]) of the same compound?
Answer: 0

Question: And the “Giant foxtail plant response rating” value (giant foxtail; [6])?
Answer: 7

Question: And the “Plant response rating (0 to 10; 0 is no effect, 10 is complete control), Giant foxtail” value (giant foxtail; Rate 250 g/ha, Postemergence)?
Answer: 0

Question: And the “Giant foxtail plant response rating” value (giant foxtail; [7])?
Answer: 0

Question: What about the “Redroot pigweed plant response rating” value (pigweed; [1]) of the same compound?
Answer: 0

Question: And the “Redroot pigweed plant response rating” value (pigweed; [2])?
Answer: 0

Question: What about the “Plant response rating, Redroot pigweed” value (pigweed; [3]) of the same compound?
Answer: 0

Question: What about the “Redroot pigweed plant response rating” value (pigweed; [4]) of the same compound?
Answer: 0

Question: And the “Redroot pigweed plant response rating” value (pigweed; [5])?
Answer: 0

Question: What about the “Redroot pigweed plant response rating” value (pigweed; [6]) of the same compound?
Answer: 0

Question: What about the “Plant response rating (0 to 10; 0 is no effect, 10 is complete control), Redroot pigweed” value (pigweed; Rate 250 g/ha, Postemergence) of the same compound?
Answer: 0

Question: What about the “Redroot pigweed plant response rating” value (pigweed; [7]) of the same compound?
Answer: 0

Question: What about the “Rape plant response rating” value (rape; [1]) of the same compound?
Answer: 0

Question: And the “Rape plant response rating” value (rape; [2])?
Answer: 0

Question: What about the “Plant response rating, Rape” value (rape; [3]) of the same compound?
Answer: 0

Question: What about the “Rape plant response rating” value (rape; [4]) of the same compound?
Answer: 0

Question: And the “Rape plant response rating” value (rape; [5])?
Answer: 0

Question: And the “Rape plant response rating” value (rape; [6])?
Answer: 0

Question: What about the “Plant response rating (0 to 10; 0 is no effect, 10 is complete control), Rape” value (rape; Rate 250 g/ha, Postemergence) of the same compound?
Answer: 0

Question: And the “Rape plant response rating” value (rape; [7])?
Answer: 0

Question: What about the “Soybean plant response rating” value (soybean; [1]) of the same compound?
Answer: 0

Question: And the “Soybean plant response rating” value (soybean; [2])?
Answer: 0

Question: And the “Plant response rating, Soybean” value (soybean; [3])?
Answer: 0

Question: What about the “Soybean plant response rating” value (soybean; [4]) of the same compound?
Answer: 1

Question: What about the “Soybean plant response rating” value (soybean; [5]) of the same compound?
Answer: 1

Question: And the “Soybean plant response rating” value (soybean; [6])?
Answer: 0

Question: And the “Plant response rating (0 to 10; 0 is no effect, 10 is complete control), Soybean” value (soybean; Rate 250 g/ha, Postemergence)?
Answer: 2

Question: And the “Soybean plant response rating” value (soybean; [7])?
Answer: 3

Question: And the “Sugarbeets plant response rating” value (sugar beet; [1])?
Answer: 0

Question: What about the “Sugarbeets plant response rating” value (sugar beet; [2]) of the same compound?
Answer: 0

Question: What about the “Plant response rating, Sugarbeets” value (sugar beet; [3]) of the same compound?
Answer: 0

Question: And the “Sugarbeets plant response rating” value (sugar beet; [4])?
Answer: 0

Question: And the “Sugarbeets plant response rating” value (sugar beet; [5])?
Answer: 0

Question: What about the “Sugarbeets plant response rating” value (sugar beet; [6]) of the same compound?
Answer: 0

Question: What about the “Plant response rating (0 to 10; 0 is no effect, 10 is complete control), Sugarbeets” value (sugar beet; Rate 250 g/ha, Postemergence) of the same compound?
Answer: 0

Question: And the “Sugarbeets plant response rating” value (sugar beet; [7])?
Answer: 0

Question: What about the “Wheat plant response rating” value (wheat; [1]) of the same compound?
Answer: 0

Question: And the “Wheat plant response rating” value (wheat; [2])?
Answer: 0

Question: What about the “Plant response rating, Wheat” value (wheat; [3]) of the same compound?
Answer: 0

Question: What about the “Wheat plant response rating” value (wheat; [4]) of the same compound?
Answer: 0

Question: And the “Wheat plant response rating” value (wheat; [5])?
Answer: 0

Question: What about the “Wheat plant response rating” value (wheat; [6]) of the same compound?
Answer: 0

Question: What about the “Plant response rating (0 to 10; 0 is no effect, 10 is complete control), Wheat” value (wheat; Rate 250 g/ha, Postemergence) of the same compound?
Answer: 0

Question: And the “Wheat plant response rating” value (wheat; [7])?
Answer: 0

Question: And the “Nutsedge plant response rating” value (purple nutsedge; Rate 62 g/ha, scale of 0 to 10 where 0 is no effect and 10 is complete control)?
Answer: 0

Question: And the “Nutsedge plant response rating” value (purple nutsedge; Rate 125 g/ha, scale 0 to 10)?
Answer: 0

Question: And the “Plant response rating (0 to 10; 0 is no effect, 10 is complete control), Nutsedge” value (purple nutsedge; Rate 250 g/ha)?
Answer: 0

Question: And the “Nutsedge plant response rating” value (purple nutsedge; Rate 500 g/ha, scale 0 to 10, 0 no effect, 10 complete control)?
Answer: 0

Question: And the “Rice plant response rating” value (rice; [8])?
Answer: 0

Question: What about the “Rice plant response rating” value (rice; [9]) of the same compound?
Answer: 0

Question: What about the “Rice plant response rating” value (rice; [10]) of the same compound?
Answer: 0

Question: What about the “Rice plant response rating” value (rice; [11]) of the same compound?
Answer: 0

Question: What about the “S. Flatsedge plant response rating” value (smallflower flatsedge; [8]) of the same compound?
Answer: 0

Question: And the “S. Flatsedge plant response rating” value (smallflower flatsedge; [9])?
Answer: 0

Question: What about the “S. Flatsedge plant response rating” value (smallflower flatsedge; [10]) of the same compound?
Answer: 0

Question: What about the “S. Flatsedge plant response rating” value (smallflower flatsedge; [11]) of the same compound?
Answer: 0

Question: What about the “Ducksalad plant response rating” value (duck salad; [8]) of the same compound?
Answer: 0

Question: What about the “Ducksalad plant response rating” value (duck salad; [9]) of the same compound?
Answer: 0

Question: And the “Ducksalad plant response rating” value (duck salad; [10])?
Answer: 0

Question: What about the “Ducksalad plant response rating” value (duck salad; [11]) of the same compound?
Answer: 0

Question: And the “Barnyardgrass plant response rating” value (bamyardgrass; [8])?
Answer: 0

Question: And the “Barnyardgrass plant response rating” value (bamyardgrass; [9])?
Answer: 0

Question: What about the “Barnyardgrass plant response rating” value (bamyardgrass; [10]) of the same compound?
Answer: 0

Question: And the “Barnyardgrass plant response rating” value (bamyardgrass; [11])?
Answer: 0
